Experimental data from patent US10723699B2 (Hyundai Pharm Co., Ltd., priority 2015, dated 2020).
Entries after “also recorded” stand apart in the source; their conditions may differ.

Experiments:
[1] = system: NCI-H716 cells; test: Promotion of glucagon-like peptide-1 (GLP-1) secretion (ELISA); format: cell-based, human; settings: 1, 10 and 30 μM-treated groups
Description: To evaluate an effect of the cyclohexene derivative according to the present invention on promotion of glucagon-like peptide-1 (GLP-1) secretion, experiments were carried out, as follows.
NCI-H716 cells that were human enterocytes were plated on 12 wells at 1×10^6 cells per well. After 48 hours, the cells were starved in serum-free media for 2 hours, and treated with a varying concentration of siptagliptin that was a dipeptidyl peptidase-IV (DPP-IV) inhibitor, and the compounds of Comparative Example 1 (1, 10, 30 μM), Comparative Example 5 (10 μM), Example 48 (1, 10, 30 μM), and Example 291 (1, 10, 30 μM). After an hour, supernatants are recovered to determine an amount of the secreted GLP-1 peptide. The GLP-1 measurement was performed using an enzyme-linked immunosorbant assay (ELISA; Millipore, EGLP-35K), and the amount of the secreted GLP-1 peptide was indicated by the unit “pM”.

[2] = system: diet-induced obesity (DIO) rat model; test: OGTT at the end of the 4-week administration in DIO rat model; format: in vivo, Sprague Dawley (SD) rats; settings: 50 mg/kg oral; glucose 2 g/kg 30 minutes later; after 4-week administration
Description: (§1) Specifically, male Sprague Dawley (SD) rats (approximately 4 weeks old) in a diet-induced obesity model were fed with a high-fat diet (Lab. Diet Co.) for approximately 10 weeks to induce high-fat diet-induced obesity (DIO). The rats undergoing the high-fat diet were randomly selected, and divided into groups (n=8) for respective administrations. The compounds of Comparative Examples 3 and 4 and Examples 48 and 119 were administered to the divided DIO rats each group for 4 weeks.
(§2) The weights of the DIO rats were measured twice a week during a period of administration of 4 weeks to record a change in the weights. At the end of the 4-week period of administration, a hypoglycemic effect was evaluated using an oral glucose tolerance test (OGTT), as follows.
Specifically, each of the compounds of Comparative Example 3 (300 mg/kg) and Examples 48 and 119 (10, 20, 50 mg/kg) was administered, and 2 g/kg of glucose was orally administered after 30 minutes of the administration. A blood glucose level was determined using an Accu-Chek Active Strip (Roche diagnostic Co.). In this case, the glucose level in blood collected via caudal venipuncture was measured at time points of −30, 0, 20, 40, 60, and 120 minutes after glucose administration. […]

[3] = system: diet-induced obesity (DIO) rat model; test: Changes in weights in diet-induced obesity (DIO) rat model, 4-week administration; format: in vivo, Sprague Dawley (SD) rats; settings: 10, 20, and 50 mg/kg oral, 4 weeks
Description: To simultaneously evaluate both the weight-loss and hypoglycemic effects of the cyclohexene derivative according to the present invention, experiments were carried out, as follows.
as §1, §2

SMILES: CC(C)c1noc(N2CCC(COc3ccc(C4=CCC(C(=O)N5CC[C@@H](O)C5)CC4)cc3)CC2)n1 (stereo partly drawn) [Example 48, ((R)-3-hydroxypyrrolidin-1-yl)(4-(4-((1-(3-isopropyl-1,2,4-oxadiazol-5-yl)piperidin-4-yl)methoxy)phenyl)cyclohex-3-enyl)methanone]
- GLP-1 secretion compared with Comparative Example 1 [1]: higher level than that of Comparative Example 1
- hypoglycemic effect [2]: approximately 25%
- changes in weights of rats (weight-loss effect) [3]: higher weight-loss effect; also recorded: persistent weight loss was observed for 4 weeks
